Measurements published in patent US8741641B2, “Methods for evaluating the stage of ovarian cancer or the survival rate of an ovarian cancer patient” (Fujifilm Corporation, priority 2007, dated 2014).

Tests used:
[1] = system: CpG islands of the CTGF gene; experiment: Demethylation of CpG islands of the CTGF gene in ovarian cancer cells cultured with demethylating reagent; type: cell-based; details: ovarian cancer cells cultured in the presence of the reagent
CTGF gene = experiment: RT-PCR analysis of CTGF gene expression in ovarian cancer cell lines after treatment with demethylating reagent or deacetylation inhibitory agent; type: cell-based; details: ovarian cancer cell lines HNOA and RMG-II not expressing the CTGF gene
Protocol: D: Ovarian cancer cell lines (HNOA and […]) were treated (+) or not treated (−) with 5-aza-dCyd (5 μM) for 5 days or TSA (100 ng/ml) for 12 hours. The results of RT-PCR analysis on the CTGF gene in the ovarian cancer cell lines.
To examine the expression levels of the 7 above genes (the CTGF gene, the ENPP1 gene, the ENPP3 gene, the CRSP3 gene, the AKAP7 gene, the EPB41L2 gene, and the KIAA1913 gene), 24 types of ovarian cancer cell line, normal ovary, and a normal ovarian epithelial cell-derived immortalized cell line (OSE-2a) were subjected to reverse transcriptase (RT)-PCR. Specifically, a single-chain cDNA was synthesized from the RNA extracted from each cultured cell line using the SuperScript First-Strand Synthesis System (Invitrogen). Moreover, a glyceraldehyde-3-phosphate dehydrogenase (GAPDH) gene was used as a control. As a result, decreased expression levels of the CTGF gene, the ENPP1 gene, and the KIAA1913 gene were shown, compared with the case of normal ovary or OSE-2a cells (FIG. 1D), although chromosomal region 6q23.1-23.2 had not undergone homozygous deletion. This may be due to a mechanism other than genomic deletion, such as an epigenetic phenomenon in ovarian cancer cell lines. Moreover, in the above experiment, the ARG1 gene was not subjected to examination, since the gene is not expressed in the ovary according to the results of analyzing the gene expression database (ncbi.Nlm.nih.gov and http://www.lsbm.org/database/index.html).
To examine if suppressed CTGF gene expression is due to DNA methylation, ovarian cancer cell lines (HNOA and RMG-II) not expressing the CTGF gene were treated using 5 μM demethylating reagent 5-aza-dCyd for 5 days or using deacetylation inhibitory agent TSA (100 ng/ml) for 12 hours. RNAs were extracted from these cells and then CTGF gene expression was examined by RT-PCR (FIG. 1D).

Compound | demethylation of CpG islands [1] | CTGF gene expression (RT-PCR) (CTGF gene; 5 μM for 5 days) | CTGF gene expression (RT-PCR) (CTGF gene; 5 μM for 5 days, listed as 5-azadeoxycytidine) | CTGF gene expression (RT-PCR) (CTGF gene; 100 ng/ml for 12 hours)
Nc1ncn([C@H]2C[C@H](O)[C@@H](CO)O2)c(=O)n1 [5-aza-dCyd, 5-azadeoxycytidine] | possible to demethylate such CpG islands | recovers its gene expression | recover the expression level of the CTGF gene | –
CC(/C=C/C(=O)NO)=C\[C@@H](C)C(=O)c1ccc(N(C)C)cc1 [TSA] | – | – | – | no differences
